Data on 15 molecules can be found in patent US10370360B2, “Small-molecule inhibitors targeting discoidin domain receptor 1 and uses thereof” (priority 2014, dated 2019).

For data set [1] the following is noted: rats; Gao et al., 2013; cited from earlier work.
A further data set has as its system orthotopic AsPC-1 tumors. Nature of the data set: survival study, orthotopic AsPC-1 xenograft in NOD-SCID mice. Format: in vivo, mouse.
A further data set concerns KPC mice (PDA). Nature of the data set: survival study, KPC genetically engineered mouse model of PDA. Format: in vivo.
The test system of data set [2] is human PDA cell lines. Nature of the data set: liquid colony forming assay. Type of data set: cell-based. Conditions: concentration-dependent, 1.5-2 weeks.
The subject of data set [3] is human PDA cell lines. Conditions: concentration-dependent, 30 hour.
For another data set, the target named is DDR2 (Homo sapiens (Human), UniProt Q16832). Nature of the data set: LanthaScreen Eu kinase activity assay, DDR2. Format: biochemical. Conditions: 100 nM ATP; for pIC50: cells without unit; for IC50: cells printed in μM. In general terms: In TR-FRET formats the signal depends on donor and acceptor labels being close together.
In another data set the target is c-Kit (Homo sapiens (Human), UniProt P10721). Nature of the data set: FRET-based Z'-Lyte kinase assay, c-kit. Format: biochemical. As to conditions: 300 μM ATP.
Data set [4] deals with Bcr-Abl. Nature of the data set: FRET-based Z'-Lyte kinase assay, Abl. Format: biochemical. As to conditions: 10 μM ATP; cells printed in μM.
The next data set addresses DDR1 (Homo sapiens (Human), UniProt Q08345). Nature of the data set: LanthaScreen Eu kinase activity assay, DDR1. Format: biochemical. As to conditions: 100 nM ATP.
Data set [5] concerns the target Bcr-Abl (Homo sapiens, UniProt P00519). Nature of the data set: FRET-based Z'-Lyte kinase assay, Abl. Format: biochemical. As to conditions: 10 μM ATP; cells printed in μM.
The next data set has as its system AsPC-1 cells. Nature of the data set: MTS viability assay, AsPC-1. Type of data set: cell-based. As to conditions: Homo sapiens; for IC50: single agent.
For another data set, the system named is PANC-1 cells. Nature of the data set: MTS viability assay, PANC-1. Type of data set: cell-based. As to conditions: Homo sapiens; for IC50: single agent. In general terms: Formazan colour is commonly taken as a measure of viable cells.

pIC50: −log10 of the molar value. Read-outs that look alike come from different tables or passages of the source.

Sequence of DDR1 (Q08345 19-913): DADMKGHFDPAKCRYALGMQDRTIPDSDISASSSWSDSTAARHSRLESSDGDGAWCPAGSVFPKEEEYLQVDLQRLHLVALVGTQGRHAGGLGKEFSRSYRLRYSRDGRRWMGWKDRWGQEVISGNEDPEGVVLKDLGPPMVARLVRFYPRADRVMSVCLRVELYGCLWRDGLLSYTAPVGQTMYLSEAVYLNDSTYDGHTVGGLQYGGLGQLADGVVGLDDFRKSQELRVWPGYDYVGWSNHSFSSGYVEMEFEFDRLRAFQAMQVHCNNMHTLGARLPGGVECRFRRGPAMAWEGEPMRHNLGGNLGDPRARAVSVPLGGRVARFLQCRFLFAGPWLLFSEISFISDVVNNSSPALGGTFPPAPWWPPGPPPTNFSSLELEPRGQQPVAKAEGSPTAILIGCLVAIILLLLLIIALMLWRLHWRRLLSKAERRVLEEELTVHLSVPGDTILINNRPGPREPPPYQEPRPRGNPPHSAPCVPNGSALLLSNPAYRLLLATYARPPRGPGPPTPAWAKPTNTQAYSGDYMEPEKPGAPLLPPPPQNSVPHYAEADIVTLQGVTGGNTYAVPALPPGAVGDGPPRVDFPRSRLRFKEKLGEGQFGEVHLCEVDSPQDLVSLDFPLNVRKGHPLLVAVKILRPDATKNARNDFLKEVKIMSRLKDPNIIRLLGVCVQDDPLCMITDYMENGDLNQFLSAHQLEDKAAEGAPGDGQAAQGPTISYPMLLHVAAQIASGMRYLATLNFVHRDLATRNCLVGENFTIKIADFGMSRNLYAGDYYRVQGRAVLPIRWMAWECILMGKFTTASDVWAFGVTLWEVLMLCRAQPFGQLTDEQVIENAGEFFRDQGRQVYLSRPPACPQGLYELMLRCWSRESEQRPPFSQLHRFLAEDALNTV
Sequence of c-Kit (P10721 26-976): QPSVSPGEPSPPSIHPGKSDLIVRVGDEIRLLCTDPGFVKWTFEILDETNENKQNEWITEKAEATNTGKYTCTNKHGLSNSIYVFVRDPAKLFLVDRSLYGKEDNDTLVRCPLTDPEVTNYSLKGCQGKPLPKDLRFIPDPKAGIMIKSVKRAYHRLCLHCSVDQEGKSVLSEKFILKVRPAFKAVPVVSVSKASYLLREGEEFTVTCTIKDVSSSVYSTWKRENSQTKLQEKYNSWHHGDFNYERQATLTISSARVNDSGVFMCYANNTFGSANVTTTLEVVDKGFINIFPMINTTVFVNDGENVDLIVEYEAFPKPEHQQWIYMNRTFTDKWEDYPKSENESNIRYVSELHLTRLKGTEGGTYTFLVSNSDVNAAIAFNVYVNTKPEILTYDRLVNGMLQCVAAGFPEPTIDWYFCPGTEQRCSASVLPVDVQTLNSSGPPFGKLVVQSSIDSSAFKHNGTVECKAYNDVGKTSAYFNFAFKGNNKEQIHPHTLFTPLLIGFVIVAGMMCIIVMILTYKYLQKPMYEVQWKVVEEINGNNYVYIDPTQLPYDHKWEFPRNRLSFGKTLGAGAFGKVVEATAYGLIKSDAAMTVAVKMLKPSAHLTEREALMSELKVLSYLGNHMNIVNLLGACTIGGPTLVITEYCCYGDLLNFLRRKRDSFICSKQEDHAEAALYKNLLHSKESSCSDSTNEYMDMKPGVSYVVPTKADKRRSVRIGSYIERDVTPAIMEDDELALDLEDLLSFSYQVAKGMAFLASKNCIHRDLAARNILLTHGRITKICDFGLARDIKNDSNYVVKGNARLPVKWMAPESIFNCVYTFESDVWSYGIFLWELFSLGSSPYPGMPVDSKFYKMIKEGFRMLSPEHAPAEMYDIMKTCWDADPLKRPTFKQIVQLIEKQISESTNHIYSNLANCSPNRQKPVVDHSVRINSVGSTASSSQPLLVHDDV
Sequence of Bcr-Abl (P00519 whole entry): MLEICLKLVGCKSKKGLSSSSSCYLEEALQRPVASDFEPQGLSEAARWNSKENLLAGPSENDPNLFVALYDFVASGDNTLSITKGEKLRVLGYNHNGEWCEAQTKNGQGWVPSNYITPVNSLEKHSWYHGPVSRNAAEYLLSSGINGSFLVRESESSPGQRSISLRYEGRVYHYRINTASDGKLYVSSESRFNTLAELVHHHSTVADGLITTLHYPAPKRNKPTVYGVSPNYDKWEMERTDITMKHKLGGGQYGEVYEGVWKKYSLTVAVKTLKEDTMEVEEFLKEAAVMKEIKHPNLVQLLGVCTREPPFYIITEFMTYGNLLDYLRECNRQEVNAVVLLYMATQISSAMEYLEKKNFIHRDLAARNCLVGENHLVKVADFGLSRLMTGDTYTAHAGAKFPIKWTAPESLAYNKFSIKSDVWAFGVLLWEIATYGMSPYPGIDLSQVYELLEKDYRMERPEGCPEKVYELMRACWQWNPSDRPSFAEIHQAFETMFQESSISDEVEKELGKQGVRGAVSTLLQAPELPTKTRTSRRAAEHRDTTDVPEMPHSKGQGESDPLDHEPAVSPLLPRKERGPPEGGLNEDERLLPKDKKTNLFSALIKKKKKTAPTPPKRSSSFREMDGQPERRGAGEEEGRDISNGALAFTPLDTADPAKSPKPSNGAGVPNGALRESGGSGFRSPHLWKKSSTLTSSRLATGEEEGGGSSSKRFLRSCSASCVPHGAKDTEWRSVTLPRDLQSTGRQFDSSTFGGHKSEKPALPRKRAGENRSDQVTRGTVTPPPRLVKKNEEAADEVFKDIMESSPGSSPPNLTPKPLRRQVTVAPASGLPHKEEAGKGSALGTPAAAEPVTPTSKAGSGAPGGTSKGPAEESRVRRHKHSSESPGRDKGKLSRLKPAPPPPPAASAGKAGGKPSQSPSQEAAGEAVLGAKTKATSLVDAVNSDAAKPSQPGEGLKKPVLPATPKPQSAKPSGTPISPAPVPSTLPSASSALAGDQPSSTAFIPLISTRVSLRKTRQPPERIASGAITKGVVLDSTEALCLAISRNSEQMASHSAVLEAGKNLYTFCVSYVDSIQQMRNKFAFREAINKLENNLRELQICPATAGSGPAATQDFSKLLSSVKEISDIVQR
Sequence of DDR2 (Q16832 22-855): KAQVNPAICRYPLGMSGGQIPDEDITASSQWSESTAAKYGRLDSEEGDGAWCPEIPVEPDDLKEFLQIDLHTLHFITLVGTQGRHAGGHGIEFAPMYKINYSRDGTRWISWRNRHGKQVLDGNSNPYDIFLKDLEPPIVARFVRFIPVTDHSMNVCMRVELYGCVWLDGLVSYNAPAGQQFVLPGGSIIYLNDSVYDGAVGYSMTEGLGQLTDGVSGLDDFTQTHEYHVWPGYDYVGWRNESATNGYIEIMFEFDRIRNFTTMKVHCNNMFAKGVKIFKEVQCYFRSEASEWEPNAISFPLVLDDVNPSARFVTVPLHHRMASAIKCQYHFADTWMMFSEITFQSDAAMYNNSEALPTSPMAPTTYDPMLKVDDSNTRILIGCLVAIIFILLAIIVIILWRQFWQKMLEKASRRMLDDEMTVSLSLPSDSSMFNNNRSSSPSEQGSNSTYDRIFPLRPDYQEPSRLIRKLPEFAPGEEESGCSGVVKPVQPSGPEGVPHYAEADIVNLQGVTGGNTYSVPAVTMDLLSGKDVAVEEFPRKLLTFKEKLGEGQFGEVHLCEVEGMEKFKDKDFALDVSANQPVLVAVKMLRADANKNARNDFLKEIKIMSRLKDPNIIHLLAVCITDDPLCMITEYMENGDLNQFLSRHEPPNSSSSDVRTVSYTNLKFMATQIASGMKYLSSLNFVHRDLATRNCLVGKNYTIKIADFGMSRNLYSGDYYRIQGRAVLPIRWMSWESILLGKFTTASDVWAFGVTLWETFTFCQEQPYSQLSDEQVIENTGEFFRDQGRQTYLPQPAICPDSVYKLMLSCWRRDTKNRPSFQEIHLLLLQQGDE
Sequence of Bcr-Abl (Homo sapiens, UniProt P00519) (P00519 whole entry): as the sequence (P00519 whole entry) above

For the molecule `CCc1ccc(C(=O)Nc2cc(CN3CCN(C)CC3)cc(C(F)(F)F)c2)cc1C#Cc1cnc2ccnn2c1` [Example 7rh, 3-(2-(Pyrazolo[1,5-a]pyrimidin-6-yl)-ethynyl) 7rh benzamide], in data set [1], the in vivo half-life is around 12 h. Also, the “primary tumor growth compared to vehicle” value is given as “reduced” with orthotopic AsPC-1 tumors (orthotopic AsPC-1, tumor weight vs survival days) and “reduced” with KPC mice (PDA) (KPC mice, tumor weight vs survival days). The median overall survival in the data set on orthotopic AsPC-1 tumors (orthotopic AsPC-1, therapy from day 27 post tumor cell injection, 7rh 25 mg/kg 3×/week oral) worked out at 57 days. The molecule further came in with a median of survival with KPC mice (PDA) (KPC mice enrolled at 4 months of age, 7rh 25 mg/kg 3×/week oral) of 159 days. In the data set with human PDA cell lines [2], the colony formation result is “reduced”. The cell migration result in the data set with human PDA cell lines [3] is on record as “reduced”.

With `CC1CN(c2cncnc2)Cc2cc(C(=O)Nc3cc(CN4CCCN(C)CC4)cc(C(F)(F)F)c3)ccc21` (stereo not drawn) [Example 14, 4-methyl-N-(3-((4-methyl-1,4-diazepan-1-yl)methyl)-5-(trifluoromethyl)phenyl)-2-(pyrimidin-5-yl)-1,2,3,4-tetrahydroisoquinoline-7-carboxamide], the pIC50 at DDR2 is 6.22; at c-Kit, below 5.00; against DDR1 it was 7.59. In addition, the IC50 at Bcr-Abl [4] is above 10 µM.

Take `CCc1cc(CN2CCN(C)CC2)cc(NC(=O)c2ccc3c(c2)CN(c2cncnc2)CC3C)c1` (stereo not drawn) [Example 15, N-(3-ethyl-5-((4-methylpiperazin-1-yl)methyl)phenyl)-4-methyl-2-(pyrimidin-5-yl)-1,2,3,4-tetrahydroisoquinoline-7-carboxamide]: the values for the IC50 at DDR2 and at Bcr-Abl [4] were 1.4 µM and above 10 µM, respectively. Also, the pIC50 on c-Kit was below 5.00; against DDR1, 7.30.

As to `CC(C)c1cc(CN2CCN(C)CC2)cc(NC(=O)c2ccc3c(c2)CN(c2cncnc2)CC3C)c1` (stereo not drawn) [Example 16, N-(3-isopropyl-5-((4-methylpiperazin-1-yl)methyl)phenyl)-4-methyl-2-(pyrimidin-5-yl)-1,2,3,4-tetrahydroisoquinoline-7-carboxamide], the pIC50 is 6.19 against DDR2, below 5.00 against c-Kit and 7.45 on DDR1. The same molecule had an IC50 on Bcr-Abl [4] of 7.2 µM.

On to `CCN1CCN(Cc2cc(NC(=O)c3ccc4c(c3)CN(c3cncnc3)CC4C)cc(C(F)(F)F)c2)CC1` (stereo not drawn) [Example 17, N-(3-((4-ethylpiperazin-1-yl)methyl)-5-(trifluoromethyl)phenyl)-4-methyl-2-(pyrimidin-5-yl)-1,2,3,4-tetrahydroisoquinoline-7-carboxamide], for which the pIC50 is 6.28 on DDR2, below 5.00 at c-Kit and 7.41 against DDR1. The molecule also registered an IC50 against Bcr-Abl [4] above 10 µM.

With `CC1CN(c2cncnc2)Cc2cc(C(=O)Nc3cc(CN4CCOCC4)cc(C(F)(F)F)c3)ccc21` (stereo not drawn) [Example 18, 4-methyl-N-(3-(morpholinomethyl)-5-(trifluoromethyl)phenyl)-2-(pyrimidin-5-yl)-1,2,3,4-tetrahydroisoquinoline-7-carboxamide], the IC50 is 4.5 µM on DDR2 and above 10 µM against Bcr-Abl [4]. Moreover, the pIC50 against c-Kit is below 5.00; on DDR1, 6.71.

Take `CC1CN(c2cncnc2)Cc2cc(C(=O)Nc3cc(CN4CCCCC4)cc(C(F)(F)F)c3)ccc21` (stereo not drawn) [Example 19, 4-methyl-N-(3-(piperidin-1-ylmethyl)-5-(trifluoromethyl)phenyl)-2-(pyrimidin-5-yl)-1,2,3,4-tetrahydroisoquinoline-7-carboxamide]: the IC50 is 2.2 µM against DDR2 and above 10 µM against Bcr-Abl [4]. Also, the pIC50 on c-Kit was below 5.00; on DDR1, 6.78.

Consider `CC1CN(c2cncnc2)Cc2cc(C(=O)Nc3cc(CN4CCCC4)cc(C(F)(F)F)c3)ccc21` (stereo not drawn) [Example 20, 4-methyl-2-(pyrimidin-5-yl)-N-(3-(pyrrolidin-1-ylmethyl)-5-(trifluoromethyl)phenyl)-1,2,3,4-tetrahydroisoquinoline-7-carboxamide], for which the IC50 at DDR2 is 2.3 µM; against Bcr-Abl [4], above 10 µM. For the same molecule, the pIC50 is below 5.00 on c-Kit and 6.65 at DDR1.

With `CC1CN(c2cncnc2)Cc2cc(C(=O)Nc3cc(CN(C)C)cc(C(F)(F)F)c3)ccc21` (stereo not drawn) [Example 21, N-(3-((dimethylamino)methyl)-5-(trifluoromethyl)phenyl)-4-methyl-2-(pyrimidin-5-yl)-1,2,3,4-tetrahydroisoquinoline-7-carboxamide], the IC50 was 6.7 µM at DDR2 and above 10 µM against Bcr-Abl [4]. For the same molecule, the results for the pIC50 at c-Kit and against DDR1 were below 5.00 and 6.60, respectively.

For the molecule `CC1CN(c2cncnc2)Cc2cc(C(=O)Nc3cc(CN4CCN(C)CC4)cc(C4CCCCC4)c3)ccc21` (stereo not drawn) [Example 22, N-(3-cyclohexyl-5-((4-methylpiperazin-1-yl)methyl)phenyl)-4-methyl-2-(pyrimidin-5-yl)-1,2,3,4-tetrahydroisoquinoline-7-carboxamide], the pIC50 on DDR2 was 6.34; on c-Kit, below 5.00; against DDR1, 7.15. For the same molecule, the IC50 at Bcr-Abl [4] was above 10 µM.

In turn, `Cc1cn(-c2cc(NC(=O)c3ccc4c(c3)CN(c3cncnc3)CC4C)cc(C(F)(F)F)c2)cn1` (stereo not drawn) [Example 26, 4-methyl-N-(3-(4-methyl-1H-imidazol-1-yl)-5-(trifluoromethyl)phenyl)-2-(pyrimidin-5-yl)-1,2,3,4-tetrahydroisoquinoline-7-carboxamide] gave a pIC50 at c-Kit below 5.00. On Bcr-Abl [5], this molecule returned an IC50 of 7.2 µM.

With `CC1Cc2ccc(C(=O)Nc3cc(CN4CCN(C)CC4)cc(C(F)(F)F)c3)cc2CN1c1cncnc1` (stereo not drawn) [Example 30, 3-methyl-N-(3-((4-methylpiperazin-1-yl)methyl)-5-(trifluoromethyl)phenyl)-2-(pyrimidin-5-yl)-1,2,3,4-tetrahydroisoquinoline-7-carboxamide], the IC50 against DDR2 is 7.6 µM; at Bcr-Abl [4], above 10 µM. The pIC50 against c-Kit was below 5.00; against DDR1 it was 6.26.

In the case of `CC1CN(c2cncnc2)Cc2cc(C(=O)Nc3cc(CN4CCN(C5CCCCC5)CC4)cc(C(F)(F)F)c3)ccc21` (stereo not drawn) [Example 33, N-(3-((4-cyclohexylpiperazin-1-yl)methyl)-5-(trifluoromethyl)phenyl)-4-methyl-2-(pyrimidin-5-yl)-1,2,3,4-tetrahydroisoquinoline-7-carboxamide], the pIC50 against DDR2 is 6.02; at c-Kit, below 5.00; at DDR1, 7.10. At Bcr-Abl [4], the IC50 was above 10 µM.

As to `CC1CN(c2cncnc2)Cc2cc(C(=O)Nc3cc(CN4CCSCC4)cc(C(F)(F)F)c3)ccc21` (stereo not drawn) [Example 35, 4-methyl-2-(pyrimidin-5-yl)-N-(3-(thiomorpholinomethyl)-5-(trifluoromethyl)phenyl)-1,2,3,4-tetrahydroisoquinoline-7-carboxamide], the IC50 against DDR2 is 3.7 µM; on Bcr-Abl [4] it was above 10 µM. Further, the pIC50 at c-Kit was below 5.00; against DDR1, 6.68.

`Nc1ccn([C@@H]2O[C@H](CO)[C@@H](O)C2(F)F)c(=O)n1` [Gemcitabine, gemcitabine]: the IC50 with AsPC-1 cells (ASPC1, AsPC-1, collagen coating, read-out: Gemcitabine (nM) Avg IC50s Collagen) is 2000 nM; with AsPC-1 cells (ASPC1, AsPC-1, plastic coating, read-out: Gemcitabine (nM) Avg IC50s Plastic), above 2000 nM; in the data set with PANC-1 cells (PANC-1, PANC-1, collagen coating, read-out: Gemcitabine (nM) Avg IC50s Collagen) it was 2000 nM; in the data set with PANC-1 cells (PANC-1, PANC-1, plastic coating, read-out: Gemcitabine (nM) Avg IC50s Plastic), above 2000 nM. The pIC50 in the data set on AsPC-1 cells (ASPC1, read-out: 500 nM 7rh + Gem Avg IC50s Plastic, AsPC-1, plastic, fixed 500 nM 7rh with gemcitabine titration) was at least 8.70; in the data set on PANC-1 cells (PANC-1, read-out: 500 nM 7rh + Gem Avg IC50s Plastic, PANC-1, plastic, fixed 500 nM 7rh with gemcitabine titration), at least 8.70.
